Source: EP0987254B1, “NOVEL CYCLIC DIAMINE COMPOUNDS AND MEDICINE CONTAINING THE SAME” (Kowa Co., Ltd., priority 1997, dated 1998)
In brackets after ≈: the same amount, converted by molar mass. Read-outs that look alike come from different tables or passages of the source.

How the values were obtained:
ACAT (blood vessel wall) = assay: ACAT inhibitory action, microsome enzyme from blood vessel wall (stethartery); type: biochemical, rabbits; details: for IC50: A = the blood vessel wall, microsome from stethartery of rabbits fed 1% cholesterol feed, 14C-oleoyl-CoA, 37°C, five minutes; for IC50 (B) /IC50 (A): ratio small intestine / blood vessel wall
Description: (§1) Microsome was prepared by a conventional method from stethartery of rabbits fed for eight weeks with a 1% cholesterol feed and was suspended in a 0.15M phosphate buffer (pH 7.4) to provide an enzyme solution. An enzyme solution derived from small intestine was prepared from small intestine or rabbits fed with normal feed. […] The solvent layer was concentrated to dryness, the residue was dissolved in hexane and the solution was spotted on a TLC plate (manufactured by Merck) followed by developing with hexane : ether : acetic acid (75:25:1). Radioactivity of the resulting cholesterol ester fraction was measured by a BAS 2000 (manufactured by Fuji Photo Film) and IC50 values were determined from a comparative calculation with the control to which only DMSO was added.

ACAT (small intestine) = assay: ACAT inhibitory action, enzyme from small intestine; type: biochemical; details: B = the small intestine of rabbits fed normal feed; 14C-oleoyl-CoA, 37°C, three minutes
Description: as §1

J774 cells = assay: ACAT inhibitory action (anti-foaming action) in J774 cells; details: for IC50 (HepG2) /IC50 (J774): ratio HepG2 / J774, 1080 min
Description: (§2) The medium was removed and, after washing with PBS twice, extraction was conducted with 1.5 ml of hexane : isopropanol (3:2) followed by concentrating to dryness. The extract was dissolved in 0.2 ml of isopropanol containing 10% of 10% Triton X-100 and total cholesterol (TC) and free cholesterol (FC) were determined by a Cholesterol E Test Wako (Wako Pure Chemicals) and a Free Cholesterol E Test Wako (Wako Pure Chemicals), respectively. Residue of the cells after extraction was solubilized with 0.25 ml of 2N NaOH at 30°C for 30 minutes and amount of protein was determined by means of a BCA Protein Assay Reagent (Pierce). From the difference between TC and FC, amount of cholesterol ester per protein was calculated and then IC50 was determined by means of a comparative calculation with the control.

HepG2 cells = assay: ACAT inhibitory action (anti-foaming action) in HepG2 cells
Description: as §2

[1] = Disintegration test: solubility in liquid No.1 for disintegration test of the Japanese Pharmacopoeia; type: physicochemical; details: jp disintegration liquid no.1; pH 1.2; liquid No.1, shaken two hours, room temperature one hour, 0.45 µm filter
Description: Absorbance of a mixture of this filtrate with methanol in the same amounts was measured and, from the previously-determined ε1% 1cm values, solubility was calculated.

[2] = Mus musculus, J774, 18 h, read-out: Enzyme (J774) IC50(µM)
[3] = Homo sapiens, HepG2, 18 h, read-out: Enzyme (HepG2) IC50(µM)

| Compound | IC50 (ACAT (blood vessel wall)) [nM] | IC50 (B) /IC50 (A) (ACAT (blood vessel wall)) | IC50 (ACAT (small intestine)) [nM] | IC50 (J774 cells; [2]) [µM] | IC50 (HepG2) /IC50 (J774) (J774 cells) | solubility [1] [µg/mL] | IC50 (HepG2 cells; [3]) [µM] | IC50 (J774 cells; read-out: Enzyme (J774) IC50, J774 cells, 10 µg/ml 25-OH cholesterol, 18 hours, cholesterol ester per protein) [µM] | IC50 (HepG2 cells; read-out: Enzyme (HepG2) IC50, HepG2 cells, 10 µg/ml 25-OH cholesterol, 18 hours, cholesterol ester per protein) [µM] |
| --- | --- | --- | --- | --- | --- | --- | --- | --- | --- |
| CC(C)c1cccc(C(C)C)c1NC(=O)C(C)(C)CCCOc1ccc2c(c1)C=C(c1nccn1C)C(CCc1ccc(F)cc1)O2 (stereo not shown) [Control 1, 5-[2-(2-(4-Fluorophenyl)ethyl)-3-(1-methyl-1H-imidazol-2-yl)-2H-1-benzopyran-6-yl]oxy-2,2-dimethyl-N-(2,6-diisopropylphenyl) -pentanamide, reference compound] | 450 | 1.9 | 870 | 0.56 | 9.5 | – | – | – | – |
| CCCCCCCCCN(CC(C)(C)C)C(=O)N[C@H]1CCCC[C@@H]1OC(=O)CCNC(=O)C1OC(C)(C)OCC1(C)C (stereo partly shown) [Control 3, reference compound] | 34 | – | 56 | – | – | – | – | – | – |
| CCCCCCCN(CCCCCSc1nc(-c2ccccc2)c(-c2ccccc2)[nH]1)c1nc2ccccc2o1 [Control 4, reference compound] | 26 | 1.4 | 37 | – | 6.3 | – | – | 0.12 | 0.75 |
| CCCC(CCCCC(=O)Nc1c(C(C)C)cccc1C(C)C)Sc1nc2ccccc2o1 (stereo not shown) [Control 5, 6-(Benzoxazol-2-ylthio)-N-(2,6-diisopropylphenyl)nonanamide] | – | – | – | – | – | 0.05 (≈ 0.107 µM) | – | – | – |
| COC(=O)c1cccc2oc(SCCN3CCN(CC(=O)Nc4c(C(C)C)cccc4C(C)C)CC3)nc12 [Example 5, 2-[4-[2-(4-methoxycarbonylbenzoxazol-2-ylthio)ethyl]-piperazin-1-yl]-N-(2,6-diisopropylphenyl) acetamide] | 56 | 2.3 | 130 | – | 14.5 | – | – | – | – |

Further lines, with some results ahead:

| IC50 (ACAT (blood vessel wall)) [nM] | IC50 (B) /IC50 (A) (ACAT (blood vessel wall)) | IC50 (ACAT (small intestine)) [nM] | IC50 (J774 cells; [2]) [µM] | IC50 (HepG2) /IC50 (J774) (J774 cells) | solubility [1] [µg/mL] | IC50 (HepG2 cells; [3]) [µM] | Compound | IC50 (J774 cells; read-out: Enzyme (J774) IC50, J774 cells, 10 µg/ml 25-OH cholesterol, 18 hours, cholesterol ester per protein) [µM] | IC50 (HepG2 cells; read-out: Enzyme (HepG2) IC50, HepG2 cells, 10 µg/ml 25-OH cholesterol, 18 hours, cholesterol ester per protein) [µM] |
| --- | --- | --- | --- | --- | --- | --- | --- | --- | --- |
| 35 | 1.1 | 39 | – | 18.2 | – | – | COC(=O)c1cccc2nc(SCCCN3CCN(CC(=O)Nc4c(C(C)C)cccc4C(C)C)CC3)oc12 [Example 10, 2-[4-[3-(7-methoxycarbonylbenzoxazol - 2-ylthio)propyl]piperazin-1-yl]-N-(2,6-diisopropylphenyl) acetamide] | – | – |
| 38 | 5.5 | 210 | 0.1 | >100 | – | > 10 | COc1cc(C(C)C)c(NC(=O)CN2CCN(CCSc3nc4ccccc4o3)CC2)c(C(C)C)c1 [Example 75, 2-[4-[2-(benzoxazol-2-ylthio)ethyl]-piperazin-1-yl]-N-(2,6-diisopropyl-4-methoxyphenyl)-acetamide] | – | – |
| 40 | 5.3 | 210 | 0.014 | 58.6 | – | 0.82 | CCOCCOc1cc(C(C)C)c(NC(=O)CN2CCN(CCSc3nc4ccccc4o3)CC2)c(C(C)C)c1 [Example 78, 2-[4-[2-(benzoxazol-2-ylthio)ethyl]piperazin-1-yl]-N-[2,6-diisopropyl-4-(2-ethoxyethyl)oxyphenyl)acetamide] | – | – |
| 12 | 4.9 | 59 | 0.019 | >53 | – | > 1 | CC(C)c1cccc(C(C)C)c1NC(=O)CN1CCN(CCSc2nc3cccc(C(F)(F)F)c3o2)CC1 [Example 85, 2-[4-[2-(7-trifluoromethylbenzoxazol-2-ylthio)ethyl]piperazin-1-yl]-N-(2,6-diisopropylphenyl)acetamide] | – | – |
